Measurements as given in ChEMBL document CHEMBL4507291 (2021).

Columns and labels:
[1] = target: T1, Aurora kinase C (Homo sapiens) (UniProt Q9UQB9)
T1 sequence (whole entry): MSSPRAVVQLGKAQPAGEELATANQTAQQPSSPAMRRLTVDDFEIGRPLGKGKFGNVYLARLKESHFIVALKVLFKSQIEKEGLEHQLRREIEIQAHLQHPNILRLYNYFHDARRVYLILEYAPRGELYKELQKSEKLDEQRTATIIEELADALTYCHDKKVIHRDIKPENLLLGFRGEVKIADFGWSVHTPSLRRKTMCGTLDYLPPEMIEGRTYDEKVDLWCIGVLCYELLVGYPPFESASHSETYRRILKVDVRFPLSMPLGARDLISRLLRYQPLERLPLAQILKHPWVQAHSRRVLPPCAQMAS

[2] = target: BMP-2-inducible protein kinase (Homo sapiens) (UniProt Q9NSY1)
[3] = target: Cyclin-dependent kinase 4 (Homo sapiens) (UniProt P11802)
[4] = target: Cyclin-dependent kinase 5 (Homo sapiens) (UniProt Q00535)
Cyclin-dependent kinase 5 (Homo sapiens), sequence (Q00535 whole entry, looked up): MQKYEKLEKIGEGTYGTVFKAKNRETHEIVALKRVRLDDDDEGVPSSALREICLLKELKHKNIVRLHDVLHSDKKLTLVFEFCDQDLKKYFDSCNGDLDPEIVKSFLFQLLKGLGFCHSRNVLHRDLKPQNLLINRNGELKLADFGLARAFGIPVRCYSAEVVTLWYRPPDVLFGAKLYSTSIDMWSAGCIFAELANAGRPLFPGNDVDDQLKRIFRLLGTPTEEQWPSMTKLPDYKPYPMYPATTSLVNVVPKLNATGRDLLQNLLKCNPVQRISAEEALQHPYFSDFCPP

[5] = target: Citron Rho-interacting kinase (Homo sapiens) (UniProt O14578)
[6] = target: Casein kinase I isoform epsilon (Homo sapiens) (UniProt P49674)
[7] = target: Dual specificity tyrosine-phosphorylation-regulated kinase 1A (Homo sapiens) (UniProt Q13627)
[8] = tested on: Epidermal growth factor receptor (Homo sapiens), P00533 [L861Q]
[9] = target: Rhodopsin kinase GRK1 (Homo sapiens) (UniProt Q15835)
[10] = target: Mitogen-activated protein kinase 9 (Homo sapiens) (UniProt P45984)
[11] = target: Mitogen-activated protein kinase kinase kinase kinase 3 (Homo sapiens) (UniProt Q8IVH8)
Mitogen-activated protein kinase kinase kinase kinase 3 (Homo sapiens), sequence (Q8IVH8 whole entry): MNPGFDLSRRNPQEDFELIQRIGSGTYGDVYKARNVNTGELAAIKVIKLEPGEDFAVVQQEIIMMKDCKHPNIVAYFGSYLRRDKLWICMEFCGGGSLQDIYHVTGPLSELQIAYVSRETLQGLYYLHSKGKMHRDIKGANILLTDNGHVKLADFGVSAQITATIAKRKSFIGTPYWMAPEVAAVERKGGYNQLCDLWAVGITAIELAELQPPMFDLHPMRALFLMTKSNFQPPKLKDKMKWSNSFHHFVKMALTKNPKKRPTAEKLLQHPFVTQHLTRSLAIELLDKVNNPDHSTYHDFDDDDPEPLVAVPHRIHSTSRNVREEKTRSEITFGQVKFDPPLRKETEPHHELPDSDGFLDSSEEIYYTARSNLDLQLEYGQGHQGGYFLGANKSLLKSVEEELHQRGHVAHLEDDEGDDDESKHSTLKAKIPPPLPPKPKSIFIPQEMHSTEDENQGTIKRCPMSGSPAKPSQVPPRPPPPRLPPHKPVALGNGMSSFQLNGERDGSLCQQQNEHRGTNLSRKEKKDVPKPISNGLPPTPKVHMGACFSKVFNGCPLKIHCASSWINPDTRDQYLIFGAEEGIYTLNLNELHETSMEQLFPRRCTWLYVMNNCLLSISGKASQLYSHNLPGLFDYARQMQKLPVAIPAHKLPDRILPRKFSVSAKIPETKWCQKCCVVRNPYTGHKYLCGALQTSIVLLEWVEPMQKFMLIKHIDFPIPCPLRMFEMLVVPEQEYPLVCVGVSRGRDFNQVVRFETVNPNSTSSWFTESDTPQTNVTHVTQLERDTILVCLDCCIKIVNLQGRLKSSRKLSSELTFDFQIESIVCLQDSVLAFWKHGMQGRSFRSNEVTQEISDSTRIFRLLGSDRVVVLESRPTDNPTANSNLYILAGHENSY

[12] = target: Hepatocyte growth factor receptor (Homo sapiens) (UniProt P08581)
[13] = target: Misshapen-like kinase 1 (Homo sapiens) (UniProt Q8N4C8)
[14] = target: Myosin light chain kinase (Homo sapiens) (UniProt Q32MK0)
[15] = target: Serine/threonine-protein kinase MRCK beta (Homo sapiens) (UniProt Q9Y5S2)
[16] = target: Serine/threonine-protein kinase 24 (Homo sapiens) (UniProt Q9Y6E0)
[17] = target: Serine/threonine-protein kinase mTOR (Homo sapiens) (UniProt P42345)
[18] = target: Cyclin-dependent kinase 16 (Homo sapiens) (UniProt Q00536)
[19] = target: T2, cGMP-dependent protein kinase 2 (Homo sapiens) (UniProt Q13237)
T2 sequence (whole entry): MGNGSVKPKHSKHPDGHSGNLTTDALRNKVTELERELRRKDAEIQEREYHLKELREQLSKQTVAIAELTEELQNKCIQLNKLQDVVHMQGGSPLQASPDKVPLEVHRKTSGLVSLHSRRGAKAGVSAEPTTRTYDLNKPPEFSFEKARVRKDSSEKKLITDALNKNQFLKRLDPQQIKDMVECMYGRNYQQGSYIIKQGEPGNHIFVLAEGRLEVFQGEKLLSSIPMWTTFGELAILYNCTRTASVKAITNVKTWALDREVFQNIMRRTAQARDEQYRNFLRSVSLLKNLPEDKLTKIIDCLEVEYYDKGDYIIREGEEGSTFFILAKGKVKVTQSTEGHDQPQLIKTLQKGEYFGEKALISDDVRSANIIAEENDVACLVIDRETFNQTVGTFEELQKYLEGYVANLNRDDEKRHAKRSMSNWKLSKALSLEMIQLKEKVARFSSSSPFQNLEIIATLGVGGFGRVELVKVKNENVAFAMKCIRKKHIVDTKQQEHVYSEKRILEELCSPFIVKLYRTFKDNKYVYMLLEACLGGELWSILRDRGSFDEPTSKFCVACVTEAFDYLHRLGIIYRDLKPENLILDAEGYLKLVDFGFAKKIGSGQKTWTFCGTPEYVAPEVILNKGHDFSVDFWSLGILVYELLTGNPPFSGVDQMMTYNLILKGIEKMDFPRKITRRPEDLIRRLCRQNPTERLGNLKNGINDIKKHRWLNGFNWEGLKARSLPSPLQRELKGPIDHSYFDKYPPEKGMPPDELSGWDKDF

[20] = target: Serine/threonine-protein kinase SBK1 (Homo sapiens) (UniProt Q52WX2)
[21] = target: Proto-oncogene tyrosine-protein kinase Src (Homo sapiens) (UniProt P12931)
[22] = target: TGF-beta receptor type-2 (Homo sapiens) (UniProt P37173)
[23] = target: Tyrosine-protein kinase receptor Tie-1 (Homo sapiens) (UniProt P35590)
Tyrosine-protein kinase receptor Tie-1 (Homo sapiens), sequence (P35590 whole entry): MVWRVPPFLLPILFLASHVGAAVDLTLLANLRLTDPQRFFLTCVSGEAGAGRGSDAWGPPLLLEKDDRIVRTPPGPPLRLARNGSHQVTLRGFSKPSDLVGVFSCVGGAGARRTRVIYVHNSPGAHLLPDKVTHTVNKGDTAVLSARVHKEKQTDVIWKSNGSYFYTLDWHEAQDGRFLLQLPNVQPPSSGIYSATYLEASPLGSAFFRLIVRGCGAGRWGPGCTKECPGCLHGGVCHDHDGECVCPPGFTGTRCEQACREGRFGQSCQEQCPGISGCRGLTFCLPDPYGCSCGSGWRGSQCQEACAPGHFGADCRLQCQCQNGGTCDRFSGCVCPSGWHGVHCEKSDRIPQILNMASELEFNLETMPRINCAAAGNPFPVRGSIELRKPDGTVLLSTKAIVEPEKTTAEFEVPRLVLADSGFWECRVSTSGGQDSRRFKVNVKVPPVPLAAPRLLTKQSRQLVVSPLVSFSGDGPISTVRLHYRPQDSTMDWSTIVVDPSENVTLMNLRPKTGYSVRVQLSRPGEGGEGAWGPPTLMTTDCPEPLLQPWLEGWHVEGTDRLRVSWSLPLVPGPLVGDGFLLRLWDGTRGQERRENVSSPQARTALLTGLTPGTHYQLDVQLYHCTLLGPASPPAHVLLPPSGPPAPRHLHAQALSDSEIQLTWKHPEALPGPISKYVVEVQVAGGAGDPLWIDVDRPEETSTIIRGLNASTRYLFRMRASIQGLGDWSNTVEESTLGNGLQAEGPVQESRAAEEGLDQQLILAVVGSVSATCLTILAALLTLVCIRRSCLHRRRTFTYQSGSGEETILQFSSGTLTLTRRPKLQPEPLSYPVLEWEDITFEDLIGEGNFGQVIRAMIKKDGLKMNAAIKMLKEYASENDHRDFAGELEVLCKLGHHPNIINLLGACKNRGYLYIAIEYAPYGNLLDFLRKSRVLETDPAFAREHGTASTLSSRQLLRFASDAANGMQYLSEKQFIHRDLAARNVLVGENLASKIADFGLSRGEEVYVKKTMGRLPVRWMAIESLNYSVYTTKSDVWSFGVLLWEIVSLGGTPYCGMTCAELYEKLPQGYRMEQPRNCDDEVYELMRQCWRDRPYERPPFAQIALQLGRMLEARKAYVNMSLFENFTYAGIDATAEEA

[24] = target: Serine/threonine-protein kinase WNK1 (Homo sapiens) (UniProt Q9H4A3)
Serine/threonine-protein kinase WNK1 (Homo sapiens), sequence (Q9H4A3 whole entry, looked up): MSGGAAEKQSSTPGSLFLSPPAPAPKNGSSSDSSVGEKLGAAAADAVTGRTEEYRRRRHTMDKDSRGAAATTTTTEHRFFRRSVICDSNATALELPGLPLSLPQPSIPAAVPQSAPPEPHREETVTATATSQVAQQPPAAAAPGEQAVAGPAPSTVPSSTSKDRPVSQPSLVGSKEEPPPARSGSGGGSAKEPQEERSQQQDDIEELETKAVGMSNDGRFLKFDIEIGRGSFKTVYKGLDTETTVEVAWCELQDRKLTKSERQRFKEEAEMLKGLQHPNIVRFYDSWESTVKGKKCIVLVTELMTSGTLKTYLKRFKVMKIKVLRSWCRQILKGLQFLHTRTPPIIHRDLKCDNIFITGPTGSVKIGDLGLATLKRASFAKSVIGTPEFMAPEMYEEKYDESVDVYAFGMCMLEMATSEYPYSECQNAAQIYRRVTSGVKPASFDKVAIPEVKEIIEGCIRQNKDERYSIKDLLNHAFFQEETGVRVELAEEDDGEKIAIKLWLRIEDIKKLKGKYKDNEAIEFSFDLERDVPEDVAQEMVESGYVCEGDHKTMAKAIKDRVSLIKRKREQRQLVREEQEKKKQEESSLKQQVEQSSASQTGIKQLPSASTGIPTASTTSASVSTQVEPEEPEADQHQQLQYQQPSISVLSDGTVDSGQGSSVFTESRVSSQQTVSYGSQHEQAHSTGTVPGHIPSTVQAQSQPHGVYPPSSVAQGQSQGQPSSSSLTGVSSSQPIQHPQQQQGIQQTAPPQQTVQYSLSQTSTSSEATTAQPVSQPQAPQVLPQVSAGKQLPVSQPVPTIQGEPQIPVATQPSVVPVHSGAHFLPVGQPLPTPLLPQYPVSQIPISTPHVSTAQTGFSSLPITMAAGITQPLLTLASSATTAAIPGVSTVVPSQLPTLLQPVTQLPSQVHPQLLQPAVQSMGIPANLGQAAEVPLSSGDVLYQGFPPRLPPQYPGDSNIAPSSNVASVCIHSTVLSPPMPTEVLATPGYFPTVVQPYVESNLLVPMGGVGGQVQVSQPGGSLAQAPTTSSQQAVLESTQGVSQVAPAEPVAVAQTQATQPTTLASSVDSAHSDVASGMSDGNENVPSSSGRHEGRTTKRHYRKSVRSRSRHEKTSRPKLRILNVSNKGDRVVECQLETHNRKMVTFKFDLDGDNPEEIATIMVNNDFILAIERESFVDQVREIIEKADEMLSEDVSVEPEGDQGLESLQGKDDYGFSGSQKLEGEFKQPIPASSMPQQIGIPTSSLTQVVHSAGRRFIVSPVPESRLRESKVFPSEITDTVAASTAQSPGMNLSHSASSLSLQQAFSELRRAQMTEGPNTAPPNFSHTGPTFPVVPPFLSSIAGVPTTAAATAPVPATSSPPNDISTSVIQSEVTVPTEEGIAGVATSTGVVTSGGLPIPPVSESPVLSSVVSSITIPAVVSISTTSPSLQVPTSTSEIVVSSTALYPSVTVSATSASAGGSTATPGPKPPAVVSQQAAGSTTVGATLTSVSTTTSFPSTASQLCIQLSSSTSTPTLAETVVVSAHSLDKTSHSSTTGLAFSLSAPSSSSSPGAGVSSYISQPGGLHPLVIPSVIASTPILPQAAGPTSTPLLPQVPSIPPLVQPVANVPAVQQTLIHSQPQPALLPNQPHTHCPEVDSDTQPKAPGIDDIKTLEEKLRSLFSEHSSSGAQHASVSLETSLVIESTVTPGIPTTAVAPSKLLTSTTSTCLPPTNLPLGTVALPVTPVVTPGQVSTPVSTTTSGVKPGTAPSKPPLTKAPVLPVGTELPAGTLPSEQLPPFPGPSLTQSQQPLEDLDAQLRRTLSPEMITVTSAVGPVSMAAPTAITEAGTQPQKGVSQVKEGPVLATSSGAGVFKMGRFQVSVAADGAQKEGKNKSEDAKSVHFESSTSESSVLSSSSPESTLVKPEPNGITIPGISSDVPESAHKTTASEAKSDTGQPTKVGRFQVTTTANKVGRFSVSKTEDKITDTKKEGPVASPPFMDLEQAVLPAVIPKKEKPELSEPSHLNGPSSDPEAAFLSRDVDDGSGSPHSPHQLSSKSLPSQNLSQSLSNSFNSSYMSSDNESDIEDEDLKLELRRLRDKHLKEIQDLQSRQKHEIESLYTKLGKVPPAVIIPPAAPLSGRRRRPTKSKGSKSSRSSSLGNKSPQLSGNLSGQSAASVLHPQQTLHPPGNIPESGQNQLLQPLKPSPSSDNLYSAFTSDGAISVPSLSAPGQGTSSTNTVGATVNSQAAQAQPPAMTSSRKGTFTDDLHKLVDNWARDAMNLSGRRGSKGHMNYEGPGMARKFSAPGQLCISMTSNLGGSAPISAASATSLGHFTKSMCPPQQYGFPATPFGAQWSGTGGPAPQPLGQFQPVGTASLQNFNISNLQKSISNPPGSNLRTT

[25] = target: T3, 5-hydroxytryptamine receptor 1A (Homo sapiens) (UniProt P08908); conditions: Compound concentration 10.0 uM
T3 sequence (whole entry): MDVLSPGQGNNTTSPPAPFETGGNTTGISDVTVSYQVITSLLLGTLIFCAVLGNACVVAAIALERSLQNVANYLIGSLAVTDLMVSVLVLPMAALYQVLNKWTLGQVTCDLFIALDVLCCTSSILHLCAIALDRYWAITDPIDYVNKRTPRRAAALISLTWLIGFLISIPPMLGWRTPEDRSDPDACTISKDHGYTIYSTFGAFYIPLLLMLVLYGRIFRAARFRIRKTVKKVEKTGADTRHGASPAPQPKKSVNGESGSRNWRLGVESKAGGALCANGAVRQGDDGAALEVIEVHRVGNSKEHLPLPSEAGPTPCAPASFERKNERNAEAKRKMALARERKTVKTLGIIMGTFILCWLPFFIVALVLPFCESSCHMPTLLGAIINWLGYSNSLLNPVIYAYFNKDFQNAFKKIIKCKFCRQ

[26] = target: 5-hydroxytryptamine receptor 1B (Homo sapiens) (UniProt P28222); conditions: Compound concentration 10.0 uM
5-hydroxytryptamine receptor 1B (Homo sapiens), sequence (P28222 whole entry): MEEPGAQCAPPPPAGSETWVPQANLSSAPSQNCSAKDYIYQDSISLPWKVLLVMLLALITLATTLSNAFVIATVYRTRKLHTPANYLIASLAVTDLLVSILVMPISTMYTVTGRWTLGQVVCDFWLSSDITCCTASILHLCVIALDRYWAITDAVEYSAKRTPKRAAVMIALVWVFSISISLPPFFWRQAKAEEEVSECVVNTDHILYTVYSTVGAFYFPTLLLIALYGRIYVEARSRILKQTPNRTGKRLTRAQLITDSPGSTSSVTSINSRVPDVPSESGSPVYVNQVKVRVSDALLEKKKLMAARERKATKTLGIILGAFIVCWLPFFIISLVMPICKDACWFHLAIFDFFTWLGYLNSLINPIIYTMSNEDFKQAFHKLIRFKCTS

[27] = Compound concentration 1000.0 nM
[28] = Compound concentration 100.0 nM

C[C@@H]1CN(c2cc(-c3nn(C)c4ccc(OC5(C)CC5)cc34)ncn2)C[C@H](C)O1 [MLi-2-NC]
inactive: residual activity [1, 27] 100% | residual activity [2, 27] 100% | residual activity [3, 27] 71% | residual activity [4, 27] 100% | residual activity [5, 27] 100% | residual activity [6, 27] 100% | residual activity [7, 27] 81% | residual activity [8, 27] 83% | residual activity [9, 27] 100% | residual activity [10, 27] 78% | residual activity [11, 27] 100% | residual activity [12, 27] 100% | residual activity [13, 27] 66% | residual activity [14, 27] 97% | residual activity [15, 27] 100% | residual activity [16, 27] 79% | residual activity [17, 27] 100% | residual activity [18, 27] 87% | residual activity [19, 27] 85% | residual activity [20, 27] 62% | residual activity [21, 27] 100% | residual activity [22, 27] 73% | residual activity [23, 27] 92% | residual activity [24, 27] 82% | inhibition [25] 18.1% | inhibition [26] 7.83%

C[C@@H]1CN(c2cc(-c3n[nH]c4ccc(OC5(C)CC5)cc34)ncn2)C[C@H](C)O1 [MLi-2]
inactive: residual activity [1, 28] 100% | residual activity [2, 28] 100% | residual activity [3, 28] 68% | residual activity [4, 28] 100% | residual activity [5, 28] 69% | residual activity [6, 28] 100% | residual activity [7, 28] 95% | residual activity [8, 28] 50% | residual activity [9, 28] 83% | residual activity [10, 28] 72% | residual activity [11, 28] 88% | residual activity [12, 28] 100% | residual activity [13, 28] 84% | residual activity [14, 28] 87% | residual activity [15, 28] 93% | residual activity [16, 28] 96% | residual activity [17, 28] 99% | residual activity [18, 28] 85% | residual activity [19, 28] 79% | residual activity [20, 28] 88% | residual activity [21, 28] 81% | residual activity [22, 28] 100% | residual activity [23, 28] 67% | residual activity [24, 28] 89% | inhibition [25] 4.44% | inhibition [26] 1.16%
